Laboratory results published in US9382244B2, “7-azaindole-2,7-naphthyridine derivative for the treatment of tumours” (Merck Patent GmbH, priority 2012, dated 2016).

Key:
[1] = biological target: T1, TGF-beta kinase ALK5 (GST-ALK5) (Homo sapiens, UniProt P36897); assay: Test for the inhibition of ALK-5 (flashplate kinase assay); assay type: biochemical; conditions: enzymatic; GST-ALK5, GST-SMAD2 substrate; read-out: IC50 [nM] [TGF-beta] enzym. ALK5
T1 sequence (P36897 34-503): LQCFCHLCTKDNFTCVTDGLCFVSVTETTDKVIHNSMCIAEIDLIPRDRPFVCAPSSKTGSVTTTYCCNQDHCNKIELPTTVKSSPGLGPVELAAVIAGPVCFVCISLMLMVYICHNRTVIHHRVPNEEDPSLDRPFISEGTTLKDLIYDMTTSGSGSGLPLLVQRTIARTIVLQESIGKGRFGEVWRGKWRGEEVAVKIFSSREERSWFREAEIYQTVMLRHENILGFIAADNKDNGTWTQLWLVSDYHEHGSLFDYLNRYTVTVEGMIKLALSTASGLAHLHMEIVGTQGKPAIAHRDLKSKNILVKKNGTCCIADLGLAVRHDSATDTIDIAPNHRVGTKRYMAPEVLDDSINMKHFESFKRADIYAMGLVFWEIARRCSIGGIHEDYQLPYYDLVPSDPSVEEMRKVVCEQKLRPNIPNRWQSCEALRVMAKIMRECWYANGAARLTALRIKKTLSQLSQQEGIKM
Description: Test for the Inhibition of ALK-5
The experimental batches are carried out in a flashplate system with 384 wells/microtitre plate.
In each case, 31.2 nM of GST-ALK5, 439 nM of GST-SMAD2 and 3 mM of ATP (with 0.3 μCi of 33P-ATP/well) in a total volume of 35 μl of buffer (20 mM HEPES, 10 mM MgCl2, 5 mM MnCl2, 1 mM DTT, 0.1% of BSA, pH 7.4) per well are incubated without or with test substance at 5 to 10 different concentrations at 30 C for 45 min. The reaction is stopped using 25 μl of 200 mM EDTA solution and filtered off with suction after 30 min at room temperature.
The wells are washed 3 times with 100 μl of 0.9% aqueous NaCl solution, and the residual radioactivity is measured in a TopCount instrument (Perkin-Elmer). The IC50 values are calculated using the RS1 software.
The radioactivity (decompositions per minute) of the blank value (no use of test substance in the presence of 100 nM staurosporine) is subtracted from all other radioactivity values. The controls (kinase activity without test substance) are set equal to 100 percent and all other radioactivity values (after subtracting the blank value) are expressed set in relation thereto (for example in % of the control).
IC50 values (concentration of the test substance at 50% inhibition) are determined with the aid of statistics programmes, such as, for example, RS1.

[2] = tested on: TGF-beta-mediated growth inhibition, lung epithelial cell line Mv1Lu; assay: Cellular TGF-beta assay: elimination of TGF-beta-mediated growth inhibition; assay type: cell-based
Description: In-Vitro (Enzyme) Assay for Determination of the Efficacy of the Inhibitors of the Inhibition of TGF-Beta-Mediated Effects
As an example, the ability of the inhibitors to eliminate TGF-beta-mediated growth inhibition is tested.
Cells of the lung epithelial cell line Mv1Lu are sown in a defined cell density in a 96-well microtitre plate and cultivated overnight under standard conditions. Next day, the medium is replaced by medium which comprises 0.5% of FCS and 1 ng/ml of TGF-beta, and the test substances are added in defined concentrations, generally in the form of dilution series with 5-fold steps. The concentration of the solvent DMSO is constant at 0.5%. After a further two days, Crystal Violet staining of the cells is carried out. After extraction of the Crystal Violet from the fixed cells, the absorption is measured spectrophotometrically at 550 nm. It can be used as a quantitative measure of the adherent cells present and thus of the cell proliferation during the culture.

Human ALK1 = biological target: T2, Human ALK1 (Homo sapiens, UniProt P37023); assay: Test for the inhibition of ALK-1; assay type: biochemical; conditions: Human ALK1, casein substrate, ATP 10 μM
T2 construct: purchased ALK1
Description: Test for the Inhibition of ALK-1
(Serine/threonine-protein kinase receptor R3, activin receptor-like kinase 1, ALK-1, TGF-B superfamily receptor type I, TSR-I, SKR3, ACVRLK1)
Substrate: Casein, 20 mg/ml

T2 sequence (P37023 22-503): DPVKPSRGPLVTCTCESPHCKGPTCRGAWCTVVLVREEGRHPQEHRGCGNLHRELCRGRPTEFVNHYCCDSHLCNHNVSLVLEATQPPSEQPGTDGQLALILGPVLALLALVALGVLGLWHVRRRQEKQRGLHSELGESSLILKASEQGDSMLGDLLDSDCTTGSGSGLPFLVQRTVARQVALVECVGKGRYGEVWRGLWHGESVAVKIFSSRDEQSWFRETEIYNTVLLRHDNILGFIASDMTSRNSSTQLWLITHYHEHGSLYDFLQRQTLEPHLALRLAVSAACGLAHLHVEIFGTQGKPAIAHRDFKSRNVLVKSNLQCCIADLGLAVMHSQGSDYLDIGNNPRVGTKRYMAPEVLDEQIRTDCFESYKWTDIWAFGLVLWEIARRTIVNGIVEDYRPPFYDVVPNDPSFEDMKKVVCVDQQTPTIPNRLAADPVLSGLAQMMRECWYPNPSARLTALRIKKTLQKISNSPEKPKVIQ

| IC50 [1] | IC50 (Human ALK1) | SMILES | IC50 [2] |
| --- | --- | --- | --- |
| 4.6 nM | 79 nM | Cc1[nH]c2ncccc2c1-c1cnc(N)c2cnccc12 [4-(2-methyl-1H-pyrrolo[2,3-b]pyridin-3-yl)-2,7-naphthyridin-1-ylamine] | 28 nM |
| 16 nM | 200 nM | Cc1[nH]c2ncccc2c1-c1nccc2c(N)nccc12 [Compound A13] | 160 nM |
| 13 nM |  | Nc1ncc(-c2c[nH]c3ncccc23)c2ccncc12 [Compound A24] | 72 nM |
| 43 nM |  | Nc1nccc2c(-c3c[nH]c4ncccc34)nccc12 [Compound A32] | 770 nM |
